# Laboratory results from paper PMC5740082, “Identification of a CARM1 Inhibitor with Potent In Vitro and In Vivo Activity in Preclinical Models of Multiple Myeloma” (Scientific Reports, 2017).
# Read-outs that look alike come from different tables or passages of the source.
# What was measured:
# CARM1 = target: T1, CARM1 (Homo sapiens, UniProt Q86X55); assay: CARM1 histone methyltransferase (biochemical) assay; settings: for IC50: 30 min preincubation, IC50 measured at 120 minutes
# T1 construct: FLAG-CARM1 (amino acids 2–585)-His for biochemical studies was expressed in 293 F mammalian cells; made in house; host or cells: 293F mammalian cells
# T1 sequence (Q86X55 2-585 isoform Q86X55-1): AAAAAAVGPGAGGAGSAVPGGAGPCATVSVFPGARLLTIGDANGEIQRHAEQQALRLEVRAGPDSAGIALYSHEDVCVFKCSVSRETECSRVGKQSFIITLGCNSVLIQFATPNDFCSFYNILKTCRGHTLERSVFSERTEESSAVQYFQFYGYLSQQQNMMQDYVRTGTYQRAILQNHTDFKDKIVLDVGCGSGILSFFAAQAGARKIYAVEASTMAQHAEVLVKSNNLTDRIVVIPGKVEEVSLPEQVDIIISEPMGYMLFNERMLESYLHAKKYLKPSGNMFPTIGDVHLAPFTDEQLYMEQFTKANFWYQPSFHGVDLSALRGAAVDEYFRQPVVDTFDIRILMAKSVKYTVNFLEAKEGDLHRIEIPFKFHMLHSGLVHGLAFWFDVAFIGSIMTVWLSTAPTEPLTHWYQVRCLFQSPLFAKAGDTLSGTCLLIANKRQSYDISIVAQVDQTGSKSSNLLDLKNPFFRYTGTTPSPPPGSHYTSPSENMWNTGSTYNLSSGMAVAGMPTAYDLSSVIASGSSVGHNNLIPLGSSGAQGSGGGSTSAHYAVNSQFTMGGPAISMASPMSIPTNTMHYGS
# Procedure: CARM1 activity was measured as previously reported for the histone methyltransferases PRMT1/6/8[65] and PRMT5[58]. Briefly, CARM1 was preincubated with compounds for 30 minutes at room temperature before reactions were initiated. […] The assays were quenched by the addition of 300 μM unlabeled SAM. The quantity of ^3H-labeled peptide produced was measured by Flashplate on a Topcount reader. Further details can be found in the Supplementary Methods.
# Histone methyltransferase assay
# The compounds were preincubated with CARM1 for 30 minutes at room temperature before the reactions were initiated by the addition of substrates. […]
# containing 20 mM bicine, 1 mM tris(2-carbox yethyl)phosphine, 0.005% bovine skin gelatin and 0.002% Tween-20, pH 7.5 and 2% DMSO. The peptide sequence was biotin-aminohexanoate- […]
# eKS AP-amide, where RMe is a monomethylated arginine residue (21st
# Century Biochemicals, Marlboro, MA). After 2 hours, assa ys were quenched b y the addition of 300 μM unlabeled SAM. The reactions were tran sferred to a 384-well Flashplate (Perkin Elmer) and the biotinylated peptides were allowed to bind to the streptavidin surface for at least 1 hour before being washed once with 0.1% Tween 20. The quantit y of 3H-labeled peptide bound to the Flashplate surface was counted on a Topcount reader as counts per minute (cpm). % Inhibition values wer e calculated and IC50 values were fit using the 3 -param eter IC50 equation below:
# YY = BBBBBBBBBBBB + (100 − BBBBBBBBBBBB )HHHHHHHH CCCCCCCCCCHHCCHHCCCCCC where top is fixed at 100 or the maximum inhibition plateau , Y is % inhibition and X is […]
# IC50 vs [peptide] data were fit to the noncom petitive Cheng- Prusoff […]
# The effect of reaction time on compound potency was determined b y meas uring IC50 values from […]
# to a one phase exponential deca y equation. […]
# activity was measured under standard conditions after a 30 minute preincubation.
# IC 50 values were d etermi ned and data wer e anal yz ed using the following eq uation: […]
# [1] = test system: asymmetric di-methyl PABP1 in RKO cells; assay: In cell western (ICW) assay for asymmetric di-methyl PABP1; settings: Homo sapiens, 48 h, read-out: CARM1 ICW IC50
# [2] = test system: 20 other diverse HMTs in the Epizyme enzyme panel; assay: Methyltransferase cross screening panel
# [3] = Pharmacokinetic profiles in mice and rats; assay type: in vivo
# [4] = test system: PABP1, SmB, aDMA and histone H3 methylation in RPMI-8226 cells; assay: Western blot of cellular methyl marks, RPMI-8226; assay type: cell-based, human; settings: for IC50: Homo sapiens
# [5] = read-out: CARM1 Biochemical IC50
IC50 (CARM1; read-out: CARM1 IC50),IC50 [1],fold more potent against CARM1 than compound 1 (CARM1),IC50 (CARM1; [5]),selectivity for CARM1 over 20 other diverse HMTs [2],biochemical potency against CARM1 compared with EZM2302 (CARM1),"IC50 ([4]; 96 h, RPMI-8226, four days, 0.0003 to 5 µM, read-out: IC50, SmBme0)","IC50 ([4]; RPMI-8226, 96 h treatment, read-out: IC50, methylation of PABP1 (PABP1me2a))",Compound,pharmacokinetic profiles [3],"changes in methylation ([4]; RPMI-8226, four days)"
2300 ± 800 nM,> 20000 nM,–,–,–,–,–,–,Cn1cnc2ccc(-c3cccc(OCC(O)CN)c3)nc21 (stereo not drawn) [Compound 1],–,–
–,19000 nM,50 fold,46 ± 9 nM,more than 100 fold,–,–,–,CC(C)n1ncc2c(N3CCOCC3)cc(-c3cccc(OCC(O)CN)c3)nc21 (stereo not drawn) [Compound 2],–,–
–,11 nM,–,3 nM,–,–,–,–,CNC[C@@H](O)COc1ccc(Cl)c(-c2nc(-c3c(C)noc3C)c(C)c(N3Cc4cnc(N5CCC5)nc4C3)n2)c1 [EPZ025654],without satisfactory pharmacokinetic profiles,–
–,> 6500 nM,–,> 1000 nM,–,much weaker biochemical potency,> 5000 nM,> 5000 nM,"CNC[C@@H](O)COc1cc(-c2nc(-c3c(C)noc3C)c(C)c(N3CC4(CCN(C(=O)OC)CC4)C3)n2)ccc1Cl [EPZ029751, methyl 2-(2-(4-chloro-3-((R)-2-hydroxy-3-(methylamino)propoxy)phenyl)-6-(3,5-dimethylisoxazol-4-yl)-5-methylpyrimidin-4-yl)-2,7-diazaspiro[3.5]nonane-7-carboxylate]",–,No robust changes in methylation
